Experimental data from article PMC5844890 (Scientific Reports, 2018).

Assays:
[1] = tested on: HMEC-1 cells; assay: Anti-proliferative activity, HMEC-1 microvascular endothelial cells (Coulter counting); type: cell-based; details: Homo sapiens, HMEC-1, 96 h; mean ± SD of three independent experiments; 4 days; read-out: Endothelial cells IC50 HMEC-1
Description: The anti-proliferative activity of the synthesized benzofurane derivatives was studied in three human cancer cell lines [breast carcinoma (MDA-MB-231), lymphoblastic leukemia (CEM) and cervical carcinoma (HeLa) cells] and one endothelial cell line [human microvascular endothelial cells (HMEC-1)].
The human microvascular endothelial cell line HMEC-1 was obtained at passage 12 from the Centers for Disease Control and Prevention (Atlanta, GA, USA) and used from passage 17 till 27. Human breast carcinoma (MDA-MB-231), human cervical carcinoma (HeLa) and human T-lymphoid (CEM) cells were obtained from ATCC (Middlesex, UK). Cell lines were maintained in culture for up to 3 months and grown in DMEM, supplemented with 10% FBS, 0.01 M Hepes and 1 mM sodium pyruvate. All cells were cultured in a humidified 5% CO2 incubator at 37 °C.
HMEC-1 cells were seeded in 48-well plates at 20,000 cells/well. After 24 h, 5-fold dilutions of the compounds were added. The cells were allowed to proliferate 4 days in the presence of the compounds, trypsinized, and counted by means of a Coulter counter (Analis, Belgium). HeLa and MDA-MB-231 cells were seeded in 48-well plates at 10,000 cells/well. After 24 h, different concentrations of the compounds were added. After 3 days of incubation, the cells were trypsinized and counted in a Coulter counter. Suspension cells (human lymphoid Cem cells) were seeded in 96-well plates at 60,000 cells/well in the presence of different concentrations of the compounds, allowed to proliferate for 96 h, and counted in a Coulter counter. The 50% inhibitory concentration (IC50) was defined as the compound concentration required to reduce cell proliferation by 50%.

[2] = tested on: MDA-MB-231 cells; assay: Caspase-3 activity / apoptosis in live cells (fluorescence microscopy); type: cell-based, human; details: 1 µM, after 24 h
Method: (§1) Figure 6 Mechanism of action of the benzofurane derivatives. (A) Inhibition of cell cycle progression. MDA-MB-231 cells were treated with DMSO (control) or compounds 8, 27 or 28 for 24 h. Next, the cells were harvested, stained with propidium iodide (PI), and cell cycle distribution was evaluated by flow cytometry. Percentages of cells in the different phases of the cell cycle are indicated. (B) Caspase-3 activity. MDA-MB-231 cells were seeded in 48-well plates at 40,000 cells/cm². After 24 h, different concentrations of compounds 8, 27 or 28 and 2 µM of the caspase-3 substrate DEVD-NucView488 were added. After 16 h, the cells were incubated with 2 µg/ml Hoechst 33342 to stain the nucleus, and imaged. (C) Disruption of the vascular network. HMEC-1 cells were cultured on matrigel for 3 h to allow the formation of tube-like structures. Next, different concentrations of compounds were added. Upper panel: After 90 min, pictures were taken and the tubular network was scored (3: intact network, 0: network completely destroyed). Bars show average ± SEM (n = 4). Lower panel: Microscopic pictures of the tubular network 3 h after addition of compound.
To confirm the capacity of compounds 27 and 28 to induce apoptosis, MDA-MB-231 cells were treated with the compounds for 24 h in the presence of NucView® 530 Caspase-3. This substrate is cleaved by active caspase-3 activity (the main executioner enzyme during apoptosis) to generate a fluorescent derivative that is analyzed using fluorescence microscopy.
MDA-MB-231 cells were seeded at 40,000 cells/cm². After 24 h, cells were incubated in Fluorobrite DMEM (Gibco), containing the compound and 2 µM of the caspase-3 substrate DEVD-NucView488 (Biotium, Hayward, CA). After 16 h, the DNA was stained with Hoechst33342 and the cells were imaged by fluorescence microscopy.

[3] = tested on: MDA-MB-231 cells; assay: Cell cycle analysis (propidium iodide, flow cytometry); type: cell-based, human; details: 24 h treatment
Method: Tubulin-binding agents interfere with mitotic spindle formation during cell division. […] Thus, we investigated whether 27 and 28 affect the progression of human breast cancer MDA-MB-231 cells through the cell cycle. […] In contrast, compounds 27 and 28 arrested the cell cycle in the M phase (mitosis) at concentrations as low as 0.03 and 0.1 μM (for compound 27 and 28 respectively).
as §1
MDA-MB-231 cells were seeded in 6-well plates at 125,000 cells/well in DMEM with 10% FBS. After 24 h, the cells were exposed to different concentrations of the compounds. After 24 h, the DNA of the cells was stained with propidium iodide using the CycleTEST PLUS DNA Reagent Kit (BD Biosciences, San Jose, CA). The DNA content of the stained cells was assessed by flow cytometry on a FACSCalibur flow cytometer and analyzed with CellQuest software (BD Biosciences) within 3 h after staining. Cell debris and clumps were excluded from the analysis by appropriate dot plot gating. Percentages of sub-G1, G1, S, and G2/M cells were estimated using appropriate region markers.

CC(Nc1cccc2cc(COCCCO)oc12)=C1C(=O)CC(c2ccccc2)CC1=O (centres unmarked) [Compound 28, 2-(1-((2-((3-Hydroxypropoxy)methyl)benzofuran-7-yl)amino)ethylidene)-5-phenylcyclohexane-1,3-dione]
IC50 [1]: 38 ± 3 nM
apoptotic rate (apoptotic cells, caspase-3 substrate) [2]: ~40%
cells in the sub-G1 phase (indicative of apoptosis) [3]: caused an increase of cells in the sub-G1 phase
lowest concentration arresting the cell cycle in the M phase [3]: 0.1 µM

COCc1cc2cccc(NC(C)=C3C(=O)CC(c4ccccc4)CC3=O)c2o1 (centres unmarked) [Compound 27, 2-(1-((2-(Methoxymethyl)benzofuran-7-yl)amino)ethylidene)-5-phenylcyclohexane-1,3-dione]
IC50 [1]: 16 ± 2 nM
apoptotic rate (apoptotic cells, caspase-3 substrate) [2]: ~ 30%
cells in the sub-G1 phase (indicative of apoptosis) [3]: caused an increase of cells in the sub-G1 phase
lowest concentration arresting the cell cycle in the M phase [3]: 0.03 µM
